Test system: lacrimal glands
Assay: Experimentation with balm ingredients applied to the skin adjacent the eyes: tear production
Format: in vivo
Details: vapor released over time
Description: The formulation particularly preferred for the balm includes caffeine, in a medically useful amount, which, when applied to the skin adjacent the eyes, promotes blood circulation thereto. Additionally included is menthol in a medically useful amount, which is included to release a vapor over a period of time subsequent to application to the skin.
By adjacent to the eye is meant the skin area on the face which is below the lower eye lid, and between the end of the nose of the user and the outside end of the eye of the user which is closest to the ear on the same side as the eye being treated.
The plurality of active ingredients have been found, in experimentation when employed together, to have a beneficial synergistic effect which is well beyond the effect of the individual ingredients when employed in a balm by themselves. Currently, an active ingredient portion of the total volume of the balm mixture, includes a combination of active ingredients blended and combined to an active ingredient portion of the total balm mixture. This active ingredient portion of the total mixture ranges from 20 to 60 percent of the total volume of the balm mixture. […]

How did the “production of tears by the lacrimal glands” value turn out when `CC1CCC(C(C)C)C(O)C1` (stereo not shown) [menthol, Menthol] was run?
Its value is “stimulate the lacrimal glands to produce tears”.

Source: patent publication US20220126077A1, “Treatment for Dry Eyes” (priority 2020, published 2022)
